From patent publication US12686873B2, “Plants having increased tolerance to herbicides” (priority 2012, dated 2026)
Several values for one entry are separate records, joined by “and”; a condition that tells them apart may be missing. Equal values may be shown once.

Tests used:
[1] = tested on: Soy; assay: Tolerance rates for soybean (injury score 0-9)
[2] = tested on: Corn; assay: Tolerance rates for corn (injury score 0-9)

Question: Which results are given for `CCOc1cc(Oc2ccc(C(F)(F)F)cc2Cl)ccc1[N+](=O)[O-]` [Oxyfluorfen]?
Answer: injury score ([1]; Oxyfluorfen 600 g ai/ha, amino acid substitution L397D_F420V Event A, SEQ ID NO 2): 4 and 5 and 6 and 9; injury score ([1]; Oxyfluorfen 600 g ai/ha, amino acid substitution L397D_F420V Event B, SEQ ID NO 2): 6 and 4 and 8 and 5; injury score ([1]; Oxyfluorfen 600 g ai/ha, amino acid substitution none, SEQ ID NO none): 8 and 7 and 9; injury score ([1]; Oxyfluorfen 1200 g ai/ha, amino acid substitution L397D_F420V Event A, SEQ ID NO 2): 5 and 4 and 3; injury score ([1]; Oxyfluorfen 1200 g ai/ha, amino acid substitution L397D_F420V Event B, SEQ ID NO 2): 5 and 4 and 6; injury score ([1]; Oxyfluorfen 1200 g ai/ha, amino acid substitution none, SEQ ID NO none): 9 and 8

Question: How did the injury score ([1]; Flumioxazin 150 g ai/ha, amino acid substitution L397D_F420V Event A, SEQ ID NO 2) turn out when `C#CCN1C(=O)COc2cc(F)c(N3C(=O)C4=C(CCCC4)C3=O)cc21` [flumioxazin] was run?
Answer: Its injury score is 9 and 6 and 5 and 4.

Question: And the injury score ([1]; Flumioxazin 150 g ai/ha, amino acid substitution L397D_F420V Event B, SEQ ID NO 2)?
Answer: The injury score was 5 and 6 and 4.

Question: And the injury score ([1]; Flumioxazin 150 g ai/ha, amino acid substitution none, SEQ ID NO none)?
Answer: The injury score was 9.

Question: For `CS(=O)(=O)NC(=O)c1cc(Oc2ccc(C(F)(F)F)cc2Cl)ccc1[N+](=O)[O-]` [fomesafen], which injury score ([1]; Fomesafen 600 g ai/ha, amino acid substitution L397D_F420V Event A, SEQ ID NO 2) is on record?
Answer: Its injury score is 1 and 2 and 0 and 4.

Question: What about the injury score ([1]; Fomesafen 600 g ai/ha, amino acid substitution L397D_F420V Event B, SEQ ID NO 2) of the same molecule?
Answer: Its injury score is 2 and 4 and 1 and 3.

Question: And the injury score ([1]; Fomesafen 600 g ai/ha, amino acid substitution none, SEQ ID NO none)?
Answer: Its injury score is 5 and 4.

Question: How did the injury score ([1]; Soy, saflufenacil 12.5 g ai/ha, amino acid substitution F420L, SEQ ID NO 2) turn out when `CC(C)N(C)S(=O)(=O)NC(=O)c1cc(-n2c(=O)cc(C(F)(F)F)n(C)c2=O)c(F)cc1Cl` [saflufenacil] was run?
Answer: The injury score was 1 and 0 and 3.

Question: And the injury score ([1]; Soy, saflufenacil 12.5 g ai/ha, amino acid substitution L369D, F392V, SEQ ID NO 40)?
Answer: The injury score was 9 and 7 and 4 and 5 and 6.

Question: And the injury score ([1]; Soy, saflufenacil 12.5 g ai/ha, amino acid substitution L397E, SEQ ID NO 2)?
Answer: Its injury score is 5 and 4 and 0 and 3.

Question: What about the injury score ([1]; Soy, saflufenacil 12.5 g ai/ha, amino acid substitution L397Q, SEQ ID NO 2) of the same molecule?
Answer: Its injury score is 4.

Question: And the injury score ([1]; Soy, saflufenacil 12.5 g ai/ha, amino acid substitution none, SEQ ID NO 2)?
Answer: Its injury score is 2 and 4 and 7 and 8 and 5.

Question: What about the injury score ([1]; Soy, saflufenacil 12.5 g ai/ha, amino acid substitution none, SEQ ID NO 40) of the same molecule?
Answer: The injury score was 9 and 3 and 4 and 8 and 7.

Question: And the injury score ([1]; Soy, saflufenacil 25 g ai/ha, amino acid substitution F420L, SEQ ID NO 2)?
Answer: The injury score was 9 and 0 and 2.

Question: And the injury score ([1]; Soy, saflufenacil 25 g ai/ha, amino acid substitution L369D, F392V, SEQ ID NO 40)?
Answer: The injury score was 9 and 5 and 6 and 7 and 4.

Question: And the injury score ([1]; Soy, saflufenacil 25 g ai/ha, amino acid substitution L397D, SEQ ID NO 2)?
Answer: The injury score was 7 and 2 and 9 and 5 and 3.

Question: What about the injury score ([1]; Soy, saflufenacil 25 g ai/ha, amino acid substitution L397E, SEQ ID NO 2) of the same molecule?
Answer: The injury score was 3 and 6 and 4 and 5 and 1.

Question: And the injury score ([1]; Soy, saflufenacil 25 g ai/ha, amino acid substitution L397Q, SEQ ID NO 2)?
Answer: Its injury score is 3.

Question: What about the injury score ([1]; Soy, saflufenacil 25 g ai/ha, amino acid substitution none, SEQ ID NO 2) of the same molecule?
Answer: Its injury score is 4 and 3 and 7 and 9 and 8.

Question: What about the injury score ([1]; Soy, saflufenacil 25 g ai/ha, amino acid substitution none, SEQ ID NO 40) of the same molecule?
Answer: The injury score was 9 and 6.

Question: What about the injury score ([1]; Soy, saflufenacil 50 g ai/ha, amino acid substitution F420L, SEQ ID NO 2) of the same molecule?
Answer: Its injury score is 9 and 0 and 2.

Question: What about the injury score ([1]; Soy, saflufenacil 50 g ai/ha, amino acid substitution L369D, F392V, SEQ ID NO 40) of the same molecule?
Answer: The injury score was 9 and 6 and 7 and 5.

Question: And the injury score ([1]; Soy, saflufenacil 50 g ai/ha, amino acid substitution L397D, SEQ ID NO 2)?
Answer: Its injury score is 9 and 4 and 3 and 6 and 5.

Question: What about the injury score ([1]; Soy, saflufenacil 50 g ai/ha, amino acid substitution L397E, F420M, SEQ ID NO 2) of the same molecule?
Answer: Its injury score is 1 and 0 and 2.

Question: And the injury score ([1]; Soy, saflufenacil 50 g ai/ha, amino acid substitution L397E, SEQ ID NO 2)?
Answer: Its injury score is 3 and 6 and 4 and 7.

Question: And the injury score ([1]; Soy, saflufenacil 50 g ai/ha, amino acid substitution L397Q, F420M, SEQ ID NO 2)?
Answer: Its injury score is 0 and 6 and 1 and 5 and 4.

Question: And the injury score ([1]; Soy, saflufenacil 50 g ai/ha, amino acid substitution L397Q, F420V, SEQ ID NO 2)?
Answer: Its injury score is 0 and 7.

Question: And the injury score ([1]; Soy, saflufenacil 50 g ai/ha, amino acid substitution L397Q, SEQ ID NO 2)?
Answer: The injury score was 8.

Question: What about the injury score ([1]; Soy, saflufenacil 50 g ai/ha, amino acid substitution none, SEQ ID NO 2) of the same molecule?
Answer: The injury score was 7 and 8 and 9 and 6.

Question: What about the injury score ([1]; Soy, saflufenacil 50 g ai/ha, amino acid substitution none, SEQ ID NO 40) of the same molecule?
Answer: The injury score was 9 and 8.

Question: And the injury score ([1]; Soy, saflufenacil 100 g ai/ha, amino acid substitution F420L, SEQ ID NO 2)?
Answer: Its injury score is 9.

Question: What about the injury score ([1]; Soy, saflufenacil 100 g ai/ha, amino acid substitution L369D, F392V, SEQ ID NO 40) of the same molecule?
Answer: Its injury score is 9 and 6.

Question: And the injury score ([1]; Soy, saflufenacil 100 g ai/ha, amino acid substitution L397D, SEQ ID NO 2)?
Answer: Its injury score is 9 and 4 and 6 and 5.

Question: What about the injury score ([1]; Soy, saflufenacil 100 g ai/ha, amino acid substitution L397E, F420M, SEQ ID NO 2) of the same molecule?
Answer: The injury score was 2 and 0 and 1.

Question: What about the injury score ([1]; Soy, saflufenacil 100 g ai/ha, amino acid substitution L397Q, F420M, SEQ ID NO 2) of the same molecule?
Answer: Its injury score is 0 and 7 and 3 and 6 and 1 and 2.

Question: What about the injury score ([1]; Soy, saflufenacil 100 g ai/ha, amino acid substitution L397Q, F420V, SEQ ID NO 2) of the same molecule?
Answer: Its injury score is 0 and 7.

Question: And the “Tolerance rate (injury score), Saflufenacil 25 g ai/ha” value ([2]; Corn events with PPO L397D, F420M (SEQ ID NO 2), Saflufenacil 25 g ai/ha)?
Answer: The value was 2 and 3 and 1.

Question: And the “Tolerance rate (injury score), Saflufenacil 50 g ai/ha” value ([2]; Corn events with PPO L397D, F420M (SEQ ID NO 2), Saflufenacil 50 g ai/ha)?
Answer: Its value is 1 and 2 and 3 and 0.

Question: What about the “Tolerance rate (injury score), Saflufenacil 100 g ai/ha” value ([2]; Corn events with PPO L397D, F420M (SEQ ID NO 2), Saflufenacil 100 g ai/ha) of the same molecule?
Answer: Its value is 7 and 3.

Question: And the “Tolerance rate (injury score), Saflufenacil 100 g ai/ha” value ([2]; Corn events with PPO L397E, F420M (SEQ ID NO 2), Saflufenacil 100 g ai/ha)?
Answer: Its value is 1 and 0 and 7.

Question: And the “Tolerance rate (injury score), Saflufenacil 100 g ai/ha” value ([2]; Corn events with PPO L397Q (SEQ ID NO 2), Saflufenacil 100 g ai/ha)?
Answer: Its value is 4 and 5.

Question: And the “Tolerance rate (injury score), Saflufenacil 100 g ai/ha” value ([2]; Corn events with PPO L397Q, F420M (SEQ ID NO 2), Saflufenacil 100 g ai/ha)?
Answer: The value was 0 and 1.

Question: What about the “Tolerance rate (injury score), Saflufenacil 100 g ai/ha” value ([2]; Corn events with PPO L397Q, F420V (SEQ ID NO 2), Saflufenacil 100 g ai/ha) of the same molecule?
Answer: Its value is 4 and 2 and 3 and 7 and 5.

Question: What about the “Tolerance rate (injury score), Saflufenacil 100 g ai/ha” value ([2]; Corn events, amino acid substitution not given, Saflufenacil 100 g ai/ha) of the same molecule?
Answer: Its value is 1.

Question: What about the “Tolerance rate (injury score), corn” value ([2]; Saflufenacil 25 g ai/ha, corn events 37-53, amino acid substitution not given) of the same molecule?
Answer: Its value is 6 and 7 and 5 and 8 and 4.

Question: And the “Tolerance rate (injury score), corn” value ([2]; Saflufenacil 25 g ai/ha, corn events with PPO substitution F420L (SEQ ID NO 2))?
Answer: Its value is 6 and 7.

Question: What about the “Tolerance rate (injury score), corn” value ([2]; Saflufenacil 25 g ai/ha, corn events with PPO substitution F420M (SEQ ID NO 2)) of the same molecule?
Answer: Its value is 4 and 6 and 8 and 7 and 5.

Question: What about the “Tolerance rate (injury score), corn” value ([2]; Saflufenacil 25 g ai/ha, corn events with PPO substitution L397D, F420V (SEQ ID NO 2)) of the same molecule?
Answer: Its value is 6 and 5 and 7.

Question: What about the “Tolerance rate (injury score), corn” value ([2]; Saflufenacil 25 g ai/ha, corn events with PPO substitution L397E, F420V (SEQ ID NO 2)) of the same molecule?
Answer: Its value is 1 and 0 and 3.

Question: And the “Tolerance rate (injury score), corn” value ([2]; Saflufenacil 50 g ai/ha, corn events 54-81, amino acid substitution not given)?
Answer: The value was 6 and 7 and 4 and 5.

Question: And the “Tolerance rate (injury score), corn” value ([2]; Saflufenacil 50 g ai/ha, corn events with PPO substitution F420L (SEQ ID NO 2))?
Answer: Its value is 7 and 8 and 6.

Question: What about the “Tolerance rate (injury score), corn” value ([2]; Saflufenacil 50 g ai/ha, corn events with PPO substitution F420M (SEQ ID NO 2)) of the same molecule?
Answer: The value was 7 and 6 and 8.

Question: And the “Tolerance rate (injury score), corn” value ([2]; Saflufenacil 50 g ai/ha, corn events with PPO substitution L397D, F420V (SEQ ID NO 2))?
Answer: The value was 4 and 6 and 7.

Question: And the “Tolerance rate (injury score), corn” value ([2]; Saflufenacil 50 g ai/ha, corn events with PPO substitution L397E, F420V (SEQ ID NO 2))?
Answer: Its value is 1 and 0 and 2 and 3.

Question: What about the “Tolerance rate (injury score), corn” value ([2]; Saflufenacil 100 g ai/ha, corn events with PPO substitution F420L (SEQ ID NO 2)) of the same molecule?
Answer: Its value is 8 and 7 and 6.

Question: What about the “Tolerance rate (injury score), corn” value ([2]; Saflufenacil 100 g ai/ha, corn events with PPO substitution L397E, F420V (SEQ ID NO 2)) of the same molecule?
Answer: The value was 0 and 1 and 3 and 2.

Question: For `Cc1nn(-c2cc(NS(C)(=O)=O)c(Cl)cc2Cl)c(=O)n1C(F)F` [sulfentrazone], which injury score ([1]; Sulfentrazone 350 g ai/ha, amino acid substitution L397D_F420V Event A, SEQ ID NO 2) is on record?
Answer: The injury score was 9 and 6 and 3 and 5.

Question: What about the injury score ([1]; Sulfentrazone 350 g ai/ha, amino acid substitution L397D_F420V Event B, SEQ ID NO 2) of the same molecule?
Answer: Its injury score is 4 and 5 and 6.

Question: And the injury score ([1]; Sulfentrazone 350 g ai/ha, amino acid substitution none, SEQ ID NO none)?
Answer: The injury score was 9 and 7 and 8.

Question: And the injury score ([1]; Sulfentrazone 700 g ai/ha, amino acid substitution L397D_F420V Event A, SEQ ID NO 2)?
Answer: Its injury score is 2 and 3 and 7 and 1 and 4 and 6.

Question: What about the injury score ([1]; Sulfentrazone 700 g ai/ha, amino acid substitution L397D_F420V Event B, SEQ ID NO 2) of the same molecule?
Answer: Its injury score is 4 and 5 and 6.

Question: What about the injury score ([1]; Sulfentrazone 700 g ai/ha, amino acid substitution none, SEQ ID NO none) of the same molecule?
Answer: The injury score was 9.
